test: in vitro; details: human, hela cells, % viability

| SMILES | viability at 28.5 h, 10 µM [%] |
| --- | --- |
| CCn1cc(C2CN(S(=O)(=O)c3cc(C)c(OC)c(C)c3)CCO2)cn1 (stereo not drawn) [CBK304224] | 85.8 |
| CCOC(=O)Cc1csc(SC(C)C(=O)N2CCCc3ccccc32)n1 (stereo not drawn) [CBK304228] | 98.9 |
| CCN(CC(=O)NC(C)(C)C)Cc1nc(-c2cccc(Br)c2)no1 [CBK304230] | 102 |
| CN(Cc1ccsc1)C(=O)c1cccc(S(=O)(=O)NCC2CCCO2)c1 (stereo not drawn) [CBK304232] | 83.7 |
| Cc1nc(COc2ccc(Cl)cc2)sc1C(=O)N1CCCCC1C(=O)O (stereo not drawn) [CBK304233] | 87.9 |
| COc1ccc(Br)c(C(CO)N(C)C(=O)CC#N)c1 (stereo not drawn) [CBK304240] | 88 |
| Cn1ncc2c(NCc3cccc(Cn4cncn4)c3)ncnc21 [CBK304241] | 89.9 |
| Cc1nc(C(=O)NCC2CN3CCCN2CC3)ccc1C(=O)O (stereo not drawn) [CBK304242] | 94 |
| CN(C(=O)C12CCOCC1CN(c1nccnc1C#N)C2)C1CCCC1 (stereo not drawn) [CBK304244] | 93.6 |
| CC(Cc1nc(-c2cnnn2C)cs1)n1cc(Cl)cn1 (stereo not drawn) [CBK304245] | 99.6 |
| CC(C)(C)OC(=O)N1CCC(N(CCCO)Cc2ccccn2)CC1 [CBK304246] | 95.1 |
| COc1cc(C(C)NC2CCN(c3nc(C)cs3)CC2)ccn1 (stereo not drawn) [CBK304247] | 83.4 |
| CC(Cc1nc(-c2nccn2C(C)C)cs1)n1cc(Cl)cn1 (stereo not drawn) [CBK304251] | 102 |
| COCC1(O)CCN(Cc2sccc2Cl)CC1 [CBK304252] | 98.7 |
| CCOC(=O)C(NC(=O)c1c(C)nn(C)c1C)c1cccc(C)c1C (stereo not drawn) [CBK304253] | 98.9 |
| Cc1ncsc1CCS(=O)(=O)N1CCOCC1c1cccc(F)c1 (stereo not drawn) [CBK304254] | 91 |
| CC(Cc1nc(-c2cnn(C)n2)cs1)n1cc(Cl)cn1 (stereo not drawn) [CBK304256] | 90.8 |
| CCc1ccc(C(O)CNC2CCN(CCOC)CC2)cc1 (stereo not drawn) [CBK304259] | 104 |
| Cc1nc(C(=O)NC2CCN(C)CC2)ccc1C(=O)O [CBK304262] | 95.2 |
| CC(NCC(O)c1ccco1)c1ccc(C#N)s1 (stereo not drawn) [CBK304265] | 85.9 |
| O=C(C1CC(O)CN1)N1CC2(CCCC2)c2c(F)cccc21 (stereo not drawn) [CBK304269C] | 99 |
| Cn1cc(C2CNCCN2C(=O)c2coc3ccccc23)cn1 (stereo not drawn) [CBK304270C] | 87 |
| CC(N)C1CCCCN1S(=O)(=O)c1ccc(OCc2ncnn2C)cc1 (stereo not drawn) [CBK304272C] | 94.3 |
| COc1ccccc1-c1cc2nc(C)cc(NCC3CCCO3)n2n1 (stereo not drawn) [CBK304277] | 96.5 |

| SMILES | viability at 28.5 h, 10 µM [%] |
| --- | --- |
| O=C(NCCNc1cnccn1)c1cncc(Br)c1 [CBK304278] | 111 |
| CC1CCC2(CC1)NC(=O)N(Cc1csc(-c3ccco3)n1)C2=O (stereo not drawn) [CBK304279] | 98.6 |
| CC(C)(C)OC(=O)N1CCCC(C(=O)NCCc2ccccn2)C1 (stereo not drawn) [CBK304281] | 86.5 |
| O=C(Cc1cn2ccsc2n1)NCCS(=O)(=O)N1CCc2ccccc21 [CBK304282] | 75.4 |
| N#Cc1cccnc1N1CCC(NC(=O)c2cccnc2)CC1 [CBK304283] | 103 |
| CC1(C)CN(Cc2cccc(-c3ccccn3)c2)CCS1(=O)=O [CBK304284] | 99.8 |
| CCOc1ncccc1NC(=O)c1cnc2c(cnn2CC(C)C)c1 [CBK304288] | 83.3 |
| Cc1ccc2c(c1)nc(CNC(=O)NCc1ccnc(C)n1)n2C [CBK304292] | 101 |
| CCC(=O)Nc1ccc(-c2csc(N(C)C)n2)cc1 [CBK304294C] | 103 |
| COc1cc2c(cc1CNC1CCCc3c1cnn3C)OC(C)C2 (stereo not drawn) [CBK304296C] | 94.6 |
| CN(C(=O)CN)c1nc2c(s1)CC(c1ccccc1)CC2 (stereo not drawn) [CBK304298C] | 74.1 |
| CCc1noc(C)c1C(=O)N1CCC(NC)C1 (stereo not drawn) [CBK304299C] | 100 |
| CCCN(C(=O)CCc1ccc(C)cc1C)C1CCNCC1 [CBK304302C] | 109 |
| COc1c(Cl)cc(Cl)cc1CNC1CCCc2c1cnn2C (stereo not drawn) [CBK304305C] | 90.6 |
| COc1ccc(C)cc1C1(CNC(=O)C2CCCC2N)CCOCC1 (stereo not drawn) [CBK304308C] | 108 |
| CNCC1CCN(S(=O)(=O)c2ccc(OCc3ncnn3C)cc2)CC1 [CBK304309C] | 97.6 |
| CN(C(=O)CCn1c(=O)oc2cc(Cl)ccc21)C1CCNC1 (stereo not drawn) [CBK304310C] | 101 |
| COc1ccc(C)cc1C1(CNC(=O)C2CCC(N)C2)CCOCC1 (stereo not drawn) [CBK304312C] | 107 |
| Cn1ncnc1COc1ccc(S(=O)(=O)N2CCCCC2CN)cc1 (stereo not drawn) [CBK304313C] | 82.3 |
| CN(C)CCCNC(=O)c1cccc(S(=O)(=O)N2CCCCC2)c1 [CBK304314C] | 91.6 |
| CS(=O)(=O)NC1CCN(c2nc(C(=O)O)nc3ccccc23)CC1 [CBK304316N] | 105 |
| CC(C)C(=O)Nc1ccc(-c2csc(N3CCN(C)CC3)n2)cc1 [CBK304317C] | 93.5 |
| CN1CCN(c2nc(-c3ccc4c(c3)CCC(=O)N4)cs2)CC1 [CBK304319C] | 80.6 |
| CCn1cc(NC(=O)C(CC)(CC)CN)ccc1=O [CBK304320C] | 89.2 |

| SMILES | viability at 28.5 h, 10 µM [%] |
| --- | --- |
| CC(C)c1nn(C)c(N(C)C)c1CNCc1cscn1 [CBK304321C] | 84.4 |
| CCn1cc(Cl)c(C(=O)NC2CCN(c3cc(C)n[nH]3)CC2)n1 [CBK304322] | 91.8 |
| O=C(NC1CCS(=O)(=O)C1)c1cnc2c(OC(F)(F)F)cccc2c1O (stereo not drawn) [CBK304323] | 99.7 |
| Cc1cc(NC(=O)CCn2cc(Br)cn2)no1 [CBK304326] | 102 |
| CCCOc1ccc(C(=O)N2CCN(c3ccccc3)CC2)cc1 [CBK304327] | 90.7 |
| CCOC(=O)c1cnc2ccccc2c1NCCN1CCOCC1 [CBK304328] | 101 |
| Cc1cc(NC(=O)C2CCN(C(=O)CCSc3ccccc3)CC2)no1 [CBK304329] | 99 |
| CC(C)(C)OC(=O)N1CCC(c2nc(-c3cccnc3)no2)CC1 [CBK304332] | 84.6 |
| Cc1csc(CN(C)C(=O)c2cc3sccc3[nH]2)n1 [CBK304334] | 92.7 |
| Cc1nn(C)cc1CNC(=O)c1cc2ncc(Br)cn2n1 [CBK304336] | 102 |
| CCCC(=O)Nc1ccc(C(=O)N2CCN(C)CC2)cc1 [CBK304337] | 100 |
| Cc1cc(CN(C)C(=O)c2cc3sccc3[nH]2)no1 [CBK304340] | 82.7 |
| O=C(NC1CCN(c2nc3cccnc3s2)CC1)c1ccsc1 [CBK304342] | 93 |
| CCCC(=O)N1CCC(C(=O)Nc2ccccc2F)CC1 [CBK304346] | 108 |
| CC1(C)CC(NC(=O)Cn2ccc3ccccc32)CCO1 (stereo not drawn) [CBK304347] | 98 |
| CC(C)c1nc(C(=O)NCC2CCCN(c3ncccn3)C2)cs1 (stereo not drawn) [CBK304351] | 100 |
| COCCN(CC1CC1)C(=O)c1cc(NC(C)=O)ccc1Cl [CBK304352] | 109 |
| O=C(CCCOc1ccccc1)N1CCN(c2cccc(Cl)c2)CC1 [CBK304354] | 107 |
| Cc1nn(C)c(C)c1CCC(=O)NCC1CCN(c2ccccc2F)C1 (stereo not drawn) [CBK304357] | 96.7 |
| Cc1cc(NC(=O)C2CCN(C(=O)c3c(F)cccc3F)CC2)no1 [CBK304359] | 95.9 |
| CN(Cc1cccc(C(F)(F)F)c1)C(=O)c1cn(CC2CCCO2)nn1 (stereo not drawn) [CBK304360] | 99.8 |
| COc1ccc2cc(C(=O)N3CCn4cncc4C3)n(C)c2c1 [CBK304362] | 98.6 |
| Cn1nccc1CCNC(=O)c1cccc(S(=O)(=O)N2CCCCC2)c1 [CBK304363] | 97 |
| CCS(=O)(=O)N1CCC(C(=O)NC2CC(C)(C)Oc3ccccc32)CC1 (stereo not drawn) [CBK304364] | 90.1 |

| SMILES | viability at 28.5 h, 10 µM [%] |
| --- | --- |
| CC1(C)CC(NC(=O)C2CCCN(S(C)(=O)=O)C2)c2ccccc2O1 (stereo not drawn) [CBK304365] | 98.2 |
| CC(C)NC(=O)CN1CCN(Cc2nc(-c3cccc(Cl)c3)no2)CC1 [CBK304369] | 100 |
| O=C(CN1CCCCC1CN1CCOCC1)NCc1ccccn1 (stereo not drawn) [CBK304375] | 115 |
| CCOC(=O)c1cnc2ccc(F)cc2c1N1CCN(C)CC1 [CBK304376] | 90.1 |
| Cc1nc(CCNC(=O)C2CCN(C(=O)c3ccc(F)cc3)CC2)cs1 [CBK304378] | 105 |
| Cn1nc(C2CC2)cc1NC(=O)NCC1CCN(c2ccccc2F)C1 (stereo not drawn) [CBK304380] | 85.2 |
| O=C(Nc1ccc2nc3n(c(=O)c2c1)CCCC3)C1CCCCC1 [CBK304383] | 91.9 |
| COC(=O)c1cc(S(=O)(=O)N2c3ccccc3CC2C)cn1C (stereo not drawn) [CBK304384] | 81.4 |
| CCOC(=O)Cc1nnc(-c2cccc(C(F)(F)F)c2)[nH]1 [CBK304385] | 81.1 |
| COC(=O)c1ccc(NC(=O)N(Cc2cnn(C)c2)CC(C)C)cc1Cl [CBK304387] | 93.1 |
| CC(=O)Nc1ccc(F)c(NC(=O)NCC2CCOC2)c1 (stereo not drawn) [CBK304388] | 107 |
| CSc1cccc(C(=O)Nc2sc3c(c2C#N)CCN(C(C)=O)C3)c1 [CBK304390] | 56 |
| CCCN(CCC)C(=O)c1ccc(NC(=O)CC)cc1 [CBK304391] | 91.8 |
| O=C1CCC(N2CCN(c3ncnc4ccccc34)CC2)CCN1 (stereo not drawn) [CBK304393] | 96.8 |
| COc1ccc(CN2CCN(C(=O)c3cccc(F)c3)CC2)cc1 [CBK304396] | 97 |
| Cc1cc(C)n(CCCC(=O)N2CCC3(CCCO3)CC2)n1 [CBK304397] | 102 |
| COCCN1CC(CNC(=O)Nc2cc(NC(C)=O)ccc2F)CC1=O (stereo not drawn) [CBK304398] | 82.4 |
| Cc1cccc(C(=O)N2CCN(Cc3nc4ccccc4[nH]3)CC2)c1 [CBK304399] | 90.2 |
| CCn1ncnc1CN1CCN(C2Cc3ccccc3C2)CC1 [CBK304401] | 101 |
| COc1ccc(S(=O)(=O)NC(CCSC)c2nnc3ccccn23)cc1 (stereo not drawn) [CBK304402] | 109 |
| CC1(C)CC(NC(=O)C2CCN(S(C)(=O)=O)CC2)c2ccccc2O1 (stereo not drawn) [CBK304404] | 103 |

— publication PMC12040169 (PLOS Biology, 2025)
